How the values were obtained:
[1] = tested on: Toxoplasma gondii RH-2F tachyzoites; test: microbe, parasite or virus in culture; conditions: 72 h, read-out: Parasite inhibition (%) mean, preliminary screen of compound library, mean
integrase (IN) = target: integrase (IN); design: method as in S-inhibitor catalog; conditions: vendor brief description; ref S-inhibitor catalog; cited from earlier work
INR263K = tested on: INR263K; design: method as in S-inhibitor catalog; conditions: vendor brief description; ref S-inhibitor catalog; cited from earlier work
in vitro = conditions: human, Host viability (%) mean
PDGFRβ = tested on: PDGFRβ; design: method as in S-inhibitor catalog; conditions: vendor brief description; ref S-inhibitor catalog; cited from earlier work
Mer = tested on: Mer; design: method as in S-inhibitor catalog; conditions: vendor brief description; ref S-inhibitor catalog; cited from earlier work
Ron = tested on: Ron; design: method as in S-inhibitor catalog; conditions: vendor brief description; ref S-inhibitor catalog; cited from earlier work
Flt1 = tested on: Flt1; design: method as in S-inhibitor catalog; conditions: vendor brief description; ref S-inhibitor catalog; cited from earlier work
c-Met = tested on: c-Met; design: method as in S-inhibitor catalog; conditions: vendor brief description; ref S-inhibitor catalog; cited from earlier work
Flt3 = tested on: Flt3; design: method as in S-inhibitor catalog; conditions: vendor brief description; ref S-inhibitor catalog; cited from earlier work
FGFR1 = conditions: read-out: IC50, FGFR1; vendor brief description; ref S-inhibitor catalog; cited from earlier work
FGFR3 = tested on: FGFR3; design: method as in S-inhibitor catalog; conditions: vendor brief description; ref S-inhibitor catalog; cited from earlier work
FGFR2 = tested on: FGFR2; design: method as in S-inhibitor catalog; conditions: vendor brief description; ref S-inhibitor catalog; cited from earlier work
cyclin A/CDK2 = tested on: cyclin A/CDK2; design: method as in S-inhibitor catalog; conditions: vendor brief description; ref S-inhibitor catalog; cited from earlier work
PI3K/mTOR = tested on: PI3K/mTOR; design: method as in S-inhibitor catalog; conditions: vendor brief description; ref S-inhibitor catalog; read-out: IC50, dual PI3K/mTOR inhibitor; cited from earlier work
FAK = tested on: FAK; design: method as in vendor brief description; conditions: ref vendor brief description; cited from earlier work
IGF-1R = tested on: IGF-1R; design: method as in vendor brief description; conditions: ref vendor brief description; cited from earlier work
HDAC2 = tested on: HDAC2; design: method as in S-inhibitor catalog; conditions: vendor brief description; ref S-inhibitor catalog; cited from earlier work
DNA methyltransferase = target: DNA methyltransferase; design: method as in vendor brief description; conditions: ref vendor brief description; cited from earlier work
PKCθ = target: PKCθ; design: method as in S-inhibitor catalog; conditions: vendor brief description; ref S-inhibitor catalog; cited from earlier work
EGFR = tested on: EGFR; design: method as in S-inhibitor catalog; conditions: vendor brief description; ref S-inhibitor catalog; cited from earlier work
HER2 = conditions: vendor brief description; ref S-inhibitor catalog; cited from earlier work
GSK3 = tested on: GSK3; design: method as in vendor brief description; conditions: ref vendor brief description; cited from earlier work
CETP = tested on: CETP; design: method as in S-inhibitor catalog; conditions: vendor brief description; ref S-inhibitor catalog; cited from earlier work
mGlu5 = tested on: mGlu5; design: method as in S-inhibitor catalog; conditions: vendor brief description; ref S-inhibitor catalog; read-out: EC50, mGlu5 allosteric modulator; cited from earlier work
JAK2 = tested on: JAK2; design: method as in S-inhibitor catalog; conditions: in HEL cells; vendor brief description; ref S-inhibitor catalog; cited from earlier work
Stat3 = tested on: Stat3; design: method as in S-inhibitor catalog; conditions: in HEL cells; vendor brief description; ref S-inhibitor catalog; cited from earlier work

CCN1C[C@@H](C)n2c(c(O)c3c(=O)n(Cc4ccc(F)c(Cl)c4)nc(C(=O)NC)c32)C1=O [MK-2048]
inhibition of growth at 5 µM [1]: 1%
IC50 (integrase (IN)): 2.6 nM
IC50 (INR263K): 1.5 nM

CN(C[C@@H]1COCCO1)S(=O)(=O)Nc1ccc2ccc3ncc(-c4cnn(C)c4)cc3c(=O)c2c1 [MK-2461]
viability at 72 h (in vitro): 60.3%
IC50 (PDGFRβ): 22 nM
IC50 (Mer): 24 nM
inhibition of growth at 5 µM [1]: 79.8%
IC50 (Ron): 7 nM
IC50 (Flt1): 10 nM
IC50 (c-Met): 2.5 nM
IC50 (Flt3): 22 nM
IC50 (FGFR1): 65 nM
IC50 (FGFR3): 50 nM
IC50 (FGFR2): 39 nM

CNC(=O)c1nn(C)c2c1C(C)(C)Cc1cnc(Nc3ccc(N4CCN(C)CC4)cc3)nc1-2 [Milciclib (PHA-848125)]
inhibition of growth at 5 µM [1]: 16.4%
IC50 (cyclin A/CDK2): 45 nM

COc1ccc(-c2ccc3ncc4c(c3c2)n(-c2ccc(N3CCNCC3)c(C(F)(F)F)c2)c(=O)n4C)cn1 [NVP-BGT226]
inhibition of growth at 5 µM [1]: 6.1%
IC50 (PI3K/mTOR): 1 nM

CNC(=O)c1ccccc1Nc1nc(Nc2ccc(N3CCOCC3)cc2OC)ncc1Cl [NVP-TAE226]
IC50 (FAK): 5.5 nM
inhibition of growth at 5 µM [1]: 66.8%

COc1ccc(-c2nc(N3CCOCC3)c3sc(CN(C)c4ncc(C(=O)NO)cn4)cc3n2)cn1 [PI3K/HDAC Inhibitor I]
viability at 72 h (in vitro): 72.1%
inhibition of growth at 5 µM [1]: 78.4%
IC50 (HDAC2): 5 nM

O=C(O)[C@H](Cc1c[nH]c2ccccc12)N1C(=O)c2ccccc2C1=O [RG108]
inhibition of growth at 5 µM [1]: 2.5%
IC50 (DNA methyltransferase): 115 nM

CN1CCN(c2nc(C3=C(c4c[nH]c5ccccc45)C(=O)NC3=O)c3ccccc3n2)CC1 [Sotrastaurin (AEB071)]
inhibition of growth at 5 µM [1]: 40.4%
Ki (PKCθ): 0.22 nM

CC(C)(O)CC(=O)NCCn1ccc2ncnc(Nc3ccc(Oc4cccc(C(F)(F)F)c4)c(Cl)c3)c21 [TAK-285]
inhibition of growth at 5 µM [1]: -12.2%
IC50 (HER2): 17 nM

O=c1sn(-c2cccc3ccccc23)c(=O)n1Cc1ccccc1 [Tideglusib]
inhibition of growth at 5 µM [1]: 52.8%

CCOC(=O)N1c2ccc(C(F)(F)F)cc2[C@H](N(Cc2cc(C(F)(F)F)cc(C(F)(F)F)c2)C(=O)OC)C[C@H]1CC [Torcetrapib (CP-529414)]
inhibition of growth at 5 µM [1]: 22.1%
IC50 (CETP): 37 nM

CCCCOc1ccc(C(=O)Nc2ccc(F)cc2F)cc1 [VU 0357121]
EC50 (mGlu5): 33 nM
inhibition of growth at 5 µM [1]: 0.1%

C[C@H](NC(=O)/C(C#N)=C/c1cccc(Br)n1)c1ccccc1 [WP1066]
IC50 (JAK2): 2300 nM
inhibition of growth at 5 µM [1]: -8.7%
IC50 (Stat3): 2430 nM

— paper PMC7216583 (Parasites & Vectors, 2020)
